In ChEMBL document CHEMBL1201862, “PubChem BioAssay data set” (2004):
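These data come from cells grown in 96-well plates and exposed to compound for 48 hours at five concentrations. GI50: concentration for 50% inhibition of growth.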 The source made the active and inactive calls. Rule as the data show it: active = GI50 up to about 1.1 µM and inactive = higher.

What was measured:
Test in all cases: NCI tumour cell line growth inhibition, 48 h
BT-549 = test system: BT-549
CAKI-1 = test system: CAKI-1
HCT-15 = test system: HCT-15
HT-29 = test system: HT-29
KM12 = test system: KM12
M14 = test system: M14
NCI-H226 = test system: NCI-H226
NCI-H23 = test system: NCI-H23
NCI-H460 = test system: NCI-H460
NCI/ADR-RES = test system: NCI/ADR-RES
RPMI-8226 = test system: RPMI-8226
RXF 393 = test system: RXF 393
SF-539 = test system: SF-539
SK-OV-3 = test system: SK-OV-3
SN12C = test system: SN12C
SNB-75 = test system: SNB-75
TK-10 = test system: TK-10
U-251 = test system: U-251
UACC-62 = test system: UACC-62
UO-31 = test system: UO-31

SMILES	GI50 (BT-549)	GI50 (CAKI-1)	GI50 (HCT-15)	GI50 (HT-29)	GI50 (KM12)	GI50 (M14)	GI50 (NCI-H226)	GI50 (NCI-H23)	GI50 (NCI-H460)	GI50 (NCI/ADR-RES)	GI50 (RPMI-8226)	GI50 (RXF 393)	GI50 (SF-539)	GI50 (SK-OV-3)	GI50 (SN12C)	GI50 (SNB-75)	GI50 (TK-10)	GI50 (U-251)	GI50 (UACC-62)	GI50 (UO-31)
C[N+](C)(C)CCN[N+]1(C)CCCc2ccccc21 (stereo not given)	> 100 µM (inactive)	> 100 µM (inactive)	> 100 µM	> 100 µM (inactive)	> 100 µM (inactive)	> 100 µM (inactive)	54.1 µM (inactive)	> 100 µM (inactive)	> 100 µM (inactive)	> 100 µM (inactive)	32.8 µM (inactive)	36 µM (inactive)	4.92 µM (inactive)	> 100 µM (inactive)	> 100 µM (inactive)	> 100 µM (inactive)	> 100 µM (inactive)	52.1 µM (inactive)	> 100 µM (inactive)	> 100 µM (inactive)
O=C(CN1C(=O)c2ccccc2C1=O)C(O)CN1C(=O)c2ccccc2C1=O (stereo not given)	48.1 µM (inactive)	> 100 µM (inactive)	92.5 µM	> 100 µM (inactive)	84.1 µM (inactive)	> 100 µM (inactive)	73.8 µM (inactive)	26.9 µM (inactive)	> 100 µM (inactive)	> 100 µM (inactive)	> 100 µM (inactive)	34.4 µM (inactive)	33.2 µM (inactive)	27.9 µM (inactive)	53.5 µM (inactive)	16 µM (inactive)	46.1 µM (inactive)	29.1 µM (inactive)	> 100 µM (inactive)	73.3 µM (inactive)
CCOC(=O)C(C(=O)c1ccccc1C(=O)OC)=P(c1ccccc1)(c1ccccc1)c1ccccc1	> 10 µM (inactive)	> 10 µM (inactive)	> 10 µM	> 10 µM (inactive)	> 10 µM (inactive)	> 10 µM (inactive)	> 10 µM (inactive)	> 10 µM (inactive)	> 10 µM (inactive)	> 10 µM (inactive)	> 10 µM (inactive)	> 10 µM (inactive)	> 10 µM (inactive)	> 10 µM (inactive)	> 10 µM (inactive)	> 10 µM (inactive)	> 10 µM (inactive)	> 10 µM (inactive)	> 10 µM (inactive)	> 10 µM (inactive)
O=C(OCCN=C1c2ccccc2CCc2ccccc21)c1cc([N+](=O)[O-])cc([N+](=O)[O-])c1	> 100 µM (inactive)	29.3 µM (inactive)	> 31.6 µM	> 31.6 µM (inactive)	28.1 µM (inactive)	> 31.6 µM (inactive)	> 31.6 µM (inactive)	> 31.6 µM (inactive)	> 31.6 µM (inactive)	> 31.6 µM (inactive)	5.09 µM (inactive)	> 31.6 µM (inactive)	> 31.6 µM (inactive)	> 100 µM (inactive)	> 31.6 µM (inactive)	> 100 µM (inactive)	> 31.6 µM (inactive)	> 100 µM (inactive)	> 31.6 µM (inactive)	21.9 µM (inactive)
CC(=O)OCC1(C)C(O)CCC2(C)C1CCC1CC3CC12CCC3(O)CO (stereo not given)	> 86.3 µM (inactive)	17.9 µM (inactive)	> 100 µM	34.3 µM (inactive)	> 100 µM (inactive)	> 100 µM (inactive)	> 100 µM (inactive)	58.7 µM (inactive)	6.75 µM (inactive)	37.7 µM (inactive)	47.5 µM (inactive)	> 100 µM (inactive)	50.6 µM (inactive)	> 100 µM (inactive)	> 100 µM (inactive)	> 100 µM (inactive)	> 100 µM (inactive)	> 100 µM (inactive)	61.8 µM (inactive)	25 µM (inactive)
